In publication PMC6733959, “Synthesis and Evaluations of Novel Apocynin Derivatives as Anti-Glioma Agents” (Frontiers in Pharmacology, 2019):

Assays:
C6 cells = assay: Apoptosis by Annexin V-FITC/PI staining, C6 cells; format: cell-based, rat; details: 48 h, mean ± SD
Description: The effects of test compound on apoptosis were detected by Annexin V-FITC/PI staining. Briefly, after treatment with indicated concentrations of test compounds (20, 50 μM) for 48 h, the cells were collected and resuspended in 500-μl detection buffer. Then 5μl PI and 5μl Annexin V-FITC were added to the detection buffer. Then, cells were incubated for 15 min in the dark and analyzed using Flow cytometer (Becton Dickinson) and WinMDI 2.8 software (Scripps Institute, La Jolla, CA, USA).

NADPH oxidase (NOX) = assay: NOX activity determination, U87 cells; format: cell-based, human; details: 20 and 50 μM
Description: The effects of candidate drug on NOX activities were measured using cytochrome c reductase (NADPH) Assay Kit (Sigma-Aldrich, St. Louis, MO, USA). Brieﬂy, after the compound treatment (20, 50 μM), the cells were collected and homogenized in an isotonic buffer ([…]), and centrifuged at 1,000 g to obtain the post-nuclear supernatants. Then 50μl samples were added to 950μl working solution (at 25°C) in a 1ml cuvette and mixed by inversion. Then 20μl cytochrome c oxidase inhibitor solution was added. After reaction with 100 μl NADPH solution, the cytochrome c absorbance was monitored at 550 nm by a spectrophotometer.

human glioma U251 cells = assay: Anti-glioma MTT assay, U251 cells; format: cell-based
Description: (§1) The anti-glioma effects of these compounds were evaluated by MTT assay in rat C6 glioma cells, human glioma U87 and U251 cells, and BMECs cells. Brieﬂy, cells were seeded at the density of 4,000 cells/well in 96-well plates overnight. For the first screening, the cells were incubated with 10, 20, 100 μM compounds for 48 h. Then cell viabilities were detected by MTT assay as described above. For the second screening, the cells were incubated with 6.25-, 12.5-, 25-, 50-, and 100μM compounds for 48 and 96 h, and then detected by MTT assay. The OD of each well was measured at 490 nm on an ELISA microplate reader. The inhibitory rates and IC50 values were calculated.

ROS levels in U87 cells = assay: Intracellular ROS levels (DCF, flow cytometry), U87 cells; format: cell-based, human; details: 20 and 50 μM, 48 h, P < 0.05
Description: Intracellular reactive oxygen species (ROS) levels were detected using Reactive Oxygen Species Assay Kit (Jiancheng Bioengineering, Nanjing, China) as per the manufacturer’s instruction. Brieﬂy, after treatment with indicated concentrations of test compound (20, 50 μM) for 48 h, the cells were incubated in 1 ml 2,7-dichloroﬂuorescin diacetate working solution (100 μM) for 30 min at 37°C in the dark, and washed with PBS. Then ﬂuorescence intensities of intracellular DCF were detected using a FACS Calibur ﬂow cytometer (Becton-Dickinson, San Jose, CA, USA). H2O2 treatment group was used as the positive control group.

[1] = Transport experiment in the in vitro BBB cell model; format: in vitro ADME; details: Sprague-Dawley, rat, C0 20 μM, apical to basolateral, mean ± SD (n = 3-4), read-out: Papp × 10^−6
Description: (§2) Rat brain microvascular endothelial cells (BMECs) were separated from the cerebral cortex of 18-day-old male Sprague-Dawley rats as described previously ([Biegel et al., 1995]). Briefly, the cerebral cortical tissues were dissected from meninges after the rats were sacrificed, then the tissues were homogenated in physiological buffer solution (pH 7.4). After centrifugation, the pellets were collected, and the microvascular segments were then digested with 0.1% collagenase II at 37°C for 1 h. […] The second passage was used for co-culture of BBB cellular models.
Astrocytes were separated from the cerebral cortex of newborn Sprague-Dawley rats (1–2 days) as described previously ([Jeliazkova-Mecheva and Bobilya, 2003]). The brain tissues (removal of the meninges and blood vessel) were minced and mechanical homogenized and then digested with 0.25% trypsin-EDTA at 37°C for 10 min.
The in vitro BBB cell model was constructed in the Transwell 24well plate ([…], Millipore, USA). Before the experiment, the transwell filters were coated with matrigel matrix. The isolated rat astroglias were seeded onto one side of polycarbonate inserts (5 × 10^4 cells/insert). After 3 to 5 days, the rat BMECs were seeded at a density of 1.5 × 10^5 cells/insert onto the opposite side of the inserts to produce rat BMEC monolayers. The in vitro BBB cell model was formed 3 to 4 days. Trans-epithelial electrical resistance (TEER) measurements were performed everyday after the co-cultures formed until the TEER value increased to […] ([Yang et al., 2014]) ( Figure 2C ).
The transport experiments were performed by adding 400 μl HBSS containing the compounds to the apical side (AP), with 600μl HBSS to the basolateral side (BL) at the same time. Samples (60 μl) were collected from the BL chamber at the time points of 15, 30, 60, 90, 120, and 180 min, and the corresponding volume of HBSS buffer was immediately added into the BL chamber. The samples were precipitated by methanol, and the concentrations of the compounds in the samples were determined by high-performance liquid chromatography (HPLC). The HPLC conditions were as follows: Agilent TC-C18 column (250 × 4.6 mm; 5 μm), methanol 1% ethanoic acid mobile phase (from 10:90 to 90:10, v/v), with gradient elution at a flow rate of 1.0 ml/min. The detection wavelength was 275 nm for these compounds. The run time was 20 min. The apparent permeability coefficients (P app) were calculated from the following formula: P app = (∆Q/∆t)/(A × C 0), where ∆Q/∆t is the linear appearance rate of the compound on the BL side (μmol/s), A is the surface area of the cell monolayer (cm^2), and C 0 is the initial concentration of the drug on the AP side (μmol/L).

BMECs = assay: MTT assay on normal BMECs (48 and 96 h); format: cell-based; details: Rattus norvegicus
Description: as §2, §1

- IC50 (human glioma U251 cells; U-251, 48 h): 40.1 µM
- IC50 (human glioma U251 cells; U-251, 96 h): 35.1 µM
- Papp at 90 min, 20 μM [1]: 12 ± 0.94 ×10⁻⁶ cm/s
Structure (SMILES): COc1cc(C(=O)CSCc2ccccc2Cl)ccc1O [Compound D31, 2-((2-Chlorobenzyl)thio)-1-(4-Hydroxy-3-Methoxyphenyl)Ethan-1-One]
- Apoptotic cell rate (C6 cells; 20 μM): 27.9 ± 4.2%
- Apoptotic cell rate (C6 cells; 50 μM): 32.2 ± 5.0%
- Effect on NOX activities vs control (NADPH oxidase (NOX)): no obvious effects
- Fluorescence intensity of DCF (ROS generation) vs control (ROS levels in U87 cells): significant increases
- IC50 (BMECs; 48 h): > 100 µM
- IC50 (BMECs; 96 h): > 100 µM
